# Measurements: patent US20050080060A1, “Antigestagenically active steroids with a fluorinated 17alpha-alkyl chain” (priority 1997, published 2005)
# Experiments:
# Assay type in all cases: in vivo, rat
# [1] = tested on: rats; experiment: Abortive test on rats s.c. and p.o.
# From the text: (§1) The tests below were all performed on rats according to known methods.
# Abortive test s.c. and p.o.: See, for example, EP-A 0 283 428.
# [2] = tested on: prostate weight; experiment: Androgen test on rats p.o. (stimulation of the prostate weight)
# Protocol: as §1
# Androgen test p.o.: Stimulation of the prostate weight with the test compound, vehicle: s.c. benzylbenzoate, castor oil (1+4); p.o. NaCl-myrj; reference compound testosterone propionate. Virtually no stimulation of the prostate weight is observed up to a dose of 10 mg of test compound/animal/day.
# [3] = tested on: uterus weight; experiment: Uterus growth test on rats p.o. for estrogenic action; settings: ovariectomized rats, 3-day treatment
# Protocol: The tests below were all performed on rats according to known methods. Uterus growth test p.o. for estrogenic action: Stimulation of uterus weight with the test compound, vehicle: s.c. benzylbenzoate/castor oil (1+4); p.o. NaCl-myrj; 3-day treatment of ovariectomized animals; parameters: uterus weight and endometrial epithelium height; vaginal smear negative; reference compound: estradiol 0.1 μg.
# [4] = tested on: dexamethasone-induced thymus suppression; experiment: Antithymolysis test on rats p.o. on antiglucocorticoid action
# From the text: The tests below were all performed on rats according to known methods. Antithymolysis test p.o. on antiglucocorticoid action: See, for example, EP-A 0 283 428.
Compound,Abortive test on rats p.o. (n abortion/n total) ([1]; dose 0.03 mg/animal/day),Abortive test on rats p.o. (n abortion/n total) ([1]; dose 0.1 mg/animal/day),Abortive test on rats p.o. (n abortion/n total) ([1]; dose 0.3 mg/animal/day),Abortive test on rats s.c. (n abortion/n total) ([1]; dose 0.03 mg/animal/day),Abortive test on rats s.c. (n abortion/n total) ([1]; dose 0.1 mg/animal/day),Abortive test on rats s.c. (n abortion/n total) ([1]; dose 0.3 mg/animal/day),Androgen test on rats p.o. (% prostate stimulation) ([2]; dose 1 mg/animal/day),Androgen test on rats p.o. (% prostate stimulation) ([2]; dose 3 mg/animal/day),Uterus growth test on rats p.o. (% uterus weight stimulation) ([3]; dose 10 mg/animal/day),Antithymolysis test on rats p.o. (% elimination of dexamethasone-induced thymus suppression) ([4]; dose 1 mg/animal/day),Antithymolysis test on rats p.o. (% elimination of dexamethasone-induced thymus suppression) ([4]; dose 3 mg/animal/day),Antithymolysis test on rats p.o. (% elimination of dexamethasone-induced thymus suppression) ([4]; dose 10 mg/animal/day),Androgen test on rats p.o. (% prostate stimulation) ([2]; dose 10 mg/animal/day),Uterus growth test on rats p.o. (% uterus weight stimulation) ([3]; dose 3 mg/animal/day),Abortive test on rats p.o. (n abortion/n total) ([1]; dose 0.003 mg/animal/day),Abortive test on rats p.o. (n abortion/n total) ([1]; dose 0.01 mg/animal/day),Antithymolysis test on rats p.o. (% elimination of dexamethasone-induced thymus suppression) ([4]; dose 2.2 mg/animal/day),Antithymolysis test on rats p.o. (% elimination of dexamethasone-induced thymus suppression) ([4]; dose 6.7 mg/animal/day),Antithymolysis test on rats p.o. (% elimination of dexamethasone-induced thymus suppression) ([4]; dose 22 mg/animal/day)
"CC(=O)c1ccc([C@H]2C[C@@]3(C)[C@@H](CC[C@@]3(O)C(F)(F)C(F)(F)F)[C@@H]3CCC4=CC(=O)CCC4=C32)cc1 [B, 11β-(4-Acetylphenyl)-17β-hydroxy-17α-(1,1,2,2,2-pentafluoroethyl)estra-4,9-dien-3-one]",(4/4),(4/4),(4/4),(4/4),(4/4),(4/4),(2.1) %,(0) %,(2.6) %,(1.2) %,(21.6) %,(18.2) %,,,,,,,
"C=C1CCOC12CCC1C3CCC4=CC(=O)CCC4=C3C(c3ccc(C(C)=O)cc3)CC12C (stereo not drawn) [E, 11β-(4-Acetylphenyl)-19,24-dinor-17,23-epoxy-17α-chola-4,9,20-trien-3-one, reference compound]",(0/4),(4/4),(4/4),(0/4),(3/4),(4/4),(4.0) %,(5.6) %,(2.4) %,(4.3) %,(19.1) %,(44.7) %,(4.4) %,(1.3) %,,,,,
"CC(=O)c1ccc(C2CC3(C)C(CCC3(O)C(F)(F)C(F)(F)F)C3CCC4=CC(=O)CCC4C23)cc1 (stereo not drawn) [Compound A, 11β-(4-Acetylphenyl)-17β-hydroxy-17α-(1,1,2,2,2-pentafluoroethyl)estr-4-en-3-one]",(4/4),(4/4),(4/4),(4/4),(4/4),(4/4),(4.8) %,(3.3) %,(3.7) %,(6.0) %,(7.4) %,(11.5) %,,,,,,,
"CC#C[C@]1(O)CC[C@H]2[C@@H]3CCC4=CC(=O)CCC4=C3[C@@H](c3ccc(N(C)C)cc3)C[C@@]21C [D, 11β-[4-(Dimethylamino)phenyl]-17β-hydroxy-17α-(1-propinyl)estra-4,9-dien-3-one, reference compound]",,,,,,,(1.6) %,(2.9) %,(6.4) %,(19) %,(79) %,(76) %,(7.2) %,,,,,,
"6′-Acetyl-9,11α-dihydro-17β-hydroxy-17α-(1,1,2,2,2-pentafluoroethyl)-4′H-naphth[3′,2′,1′:10,9,11]estr-4-en-3-one [Compound C]",(4/4),(4/4),(4/4),(4/4),(4/4),(4/4),,,(4.4) %,,,,,,(4/4),(4/4),(7.2) %,(31.6) %,(18.8) %
